Reference: US20090053199A1, “Stable Dairy Components Effective for Fat Loss” (priority 2005, published 2009)

System: transgenic mice expressing agouti specifically in adipocytes under the control of the aP2 promoter
Assay: Example 2: weight, fat pad and muscle mass after six weeks on diets including fresh whey products
Format: in vivo
Conditions: Example 2, FIG. 11, 1 = Ad Lib, 2 = loCa, 3 = milk, 4 = fresh whey protein, 5 = casein, 6 = soy, 7 = fresh whey mineral, 8 = fresh whey mineral/ACE
Excerpt: The same animals were used as in Example 1. […] All diets had 25% fat (lard+soy oil), with sucrose as sole carbohydrate and the proteins indicated as the sole protein source. Group 1 continued for 6 weeks on the above diet ad libitum. Groups 2-8 continued for six weeks on a restricted diet (70% of the ad libitum energy intake). […] Group 8 used a fresh whey mineral isolate with a whey-derived ACE-inhibitor (e.g., BIPRO). During the six weeks, body weight, food intake and core temperature were measured weekly. […] Specifically, core temperature was monitored weekly as an indirect metabolic index using a thermocouple, and fasting insulin (by radioimmunoassay), leptin (by radioimmunoassay) and glucose (by glucose oxidase) levels were assessed at baseline and at weeks 2, and 6. At the conclusion of the study, all mice were sacrificed under isofluorane anaesthesia and individual subcutaneous and visceral fat depots were excised and weighed for comparison of fat accumulation among the groups and assessment of adipocyte size and number via a Coulter Counter method. Aliquots of adipose tissue were then immediately frozen in liquid nitrogen for subsequent study of gene expression.

O=C([O-])[O-].[Ca+2] [calcium carbonate]
gastrocnemius muscle mass (most to least), Benefit Ranking: did not modify or attenuate this decrease
